Experimental findings from publication PMC8480782, “Efficient Dimerization Disruption of Leishmania infantum Trypanothione Reductase by Triazole-phenyl-thiazoles” (Journal of Medicinal Chemistry, 2021) are described below.

Where “and” joins values, the source holds several entries; their conditions need not be identical. Equal entries are not always repeated. Where two headings read alike, the source gives them in different places.

In experiment [1] the test system is L. infantum axenic amastigotes. Description: Leishmanicidal activity on axenic amastigotes (PI exclusion, flow cytometry). The format is cell-based, Leishmania infantum. To be noted: for SIa (ratio of EC50 against human cells to EC50 against amastigotes): HepG2 / axenic amastigotes; for EC50: Leishmania infantum, read-out: EC50 amastigotes. The method, boiled down: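 Leishmania infantum axenic amastigotes (MCAN/ES/89/IPZ229/1/89) were cultured at 37 °C in M199 medium, pH 5.4, with 10% heat-inactivated FCS, organic acids, MES, hemin and gentamicine. After compound exposure, parasites were gated by FSC/SSC and live versus dead cells were distinguished by propidium iodide exclusion using flow cytometry. EC50 values came from nonlinear regression in GraFit 6, with triplicates in at least three independent experiments.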
Background: A flow cytometer gives signals particle by particle.

A further experiment addresses T1, TcoTryR (Trypanosoma congolense, UniProt P13110).
T1 construct: HIS; made in house; host or cells: E. coli
Nature of the experiment: TryR oxidoreductase activity, DTNB-coupled assay (TcoTryR). The format is biochemical. An excerpt:
The DNA coding sequences for Homo sapiens GR, T. brucei TryR, and T. congolense TryR were polymerase chain reaction (PCR)-amplified and cloned in the pRSETA plasmid. The DNA coding for hGR (transcript variant 1; NCBI Reference Sequence: NM_000637.5) was purchased from GeneScript. Genomic DNA from T. congolense parasites was kindly provided by Dr. Stefan Magez (University of Vrije, Brussels). Genomic DNA from the T. brucei S16 cell line was kindly provided by José M. Pérez-Victoria. Instituto de Parasitología y Biomedicina “López—Neyra” CSIC. HIS-tagged recombinant T. brucei and T. congolense TryRs (TbTryR and TcoTryR, respectively) were purified from E. coli as already explained for LiTryR.
TryR oxidoreductase activity was determined spectrophotometrically using a modified version of the DTNB-coupled assay described by Hamilton et al.[52] Briefly, reactions were carried out at 26 °C in 250 μL of N-(2-hydroxyethyl)piperazine-N′-ethanesulfonic acid (HEPES) buffer (pH 7.5, 40 mM) containing ethylenediaminetetraacetic acid (EDTA) (1 mM), NADP^+ (30 μM), DTNB (25 μM), TS2 (1 μM), NADPH (150 μM), glycerol (0.02%), DMSO (1.75%), and recombinant TryR (7 nM). […] Reactions were started by addition of a mixture of NADPH and TS2.
TryR oxidoreductase activity was monitored at 26 °C by an increase in absorbance at 412 nm in an EnSpire Multimode Plate Reader (PerkinElmer, Waltham, MA). […] (TNB) concentration was obtained by multiplying the absorbance values by 100 (50 μM TNB generates 0.5 arbitrary units of absorbance at 412 nm). In this DTNB-coupled assay, one molecule of T(SH)2 reduces one molecule of DTNB, producing two TNB molecules. All of the assays were conducted in at least three independent experiments. Data were analyzed using a nonlinear regression model with GraFit 6 software (Erithacus, Horley, Surrey, U.K.).

The mark [2] stands for this setting: axenic amastigotes, 24 h at 37 °C.

T1 sequence (P13110 whole entry): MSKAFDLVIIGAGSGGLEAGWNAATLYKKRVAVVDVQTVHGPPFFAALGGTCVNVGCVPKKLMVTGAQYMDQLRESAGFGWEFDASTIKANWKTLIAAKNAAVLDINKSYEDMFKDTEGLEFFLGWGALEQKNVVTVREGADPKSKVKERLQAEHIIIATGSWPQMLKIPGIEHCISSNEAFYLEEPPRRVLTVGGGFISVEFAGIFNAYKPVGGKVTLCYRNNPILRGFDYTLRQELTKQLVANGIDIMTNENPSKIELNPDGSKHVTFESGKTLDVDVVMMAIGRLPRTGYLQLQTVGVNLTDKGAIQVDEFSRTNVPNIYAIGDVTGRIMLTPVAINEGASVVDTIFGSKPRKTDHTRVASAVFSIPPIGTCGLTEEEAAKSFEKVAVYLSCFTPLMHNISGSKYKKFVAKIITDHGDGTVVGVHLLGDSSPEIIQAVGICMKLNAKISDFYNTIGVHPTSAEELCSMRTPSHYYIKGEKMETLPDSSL

Usually EC50 stands for the concentration giving half of the maximal effect. `NCCCCc1cn(-c2ccc(-c3nc(CCc4ccc5c(c4)CCCN5)cs3)c(OCCN3CCNC3=O)c2)nn1.O=C(O)C(F)(F)F.O=C(O)C(F)(F)F` [12q]: the “SIa (ratio of EC50 against human cells to EC50 against amastigotes)” value in experiment [1] is listed as “ND/1.6”. For the same molecule, the concentration giving a half-maximal response (EC50) in experiment [1] (setting [2]) turned out to be 27 ± 2.8 µM.

One may read the IC50 as the concentration that inhibits the measured activity by half. For the molecule `NCCCCc1cn(-c2ccc(-c3nc(-c4cccc(-c5csc(-c6ccc(-n7cc(CCCCN)nn7)cc6OCCN6CCNC6=O)n5)c4)cs3)c(OCCN3CCNC3=O)c2)nn1.O=C(O)C(F)(F)F.O=C(O)C(F)(F)F` [compound 22, 1,1′-((((1,3-Phenylenebis(thiazole-4,2-diyl))bis(5-(4-(4-ammoniobutyl)-1H-1,2,3-triazol-1-yl)-2,1-phenylene))bis(oxy))bis(ethane-2,1-diyl))bis(imidazolidin-2-one)bis(2,2,2-trifluoroacetate)], at TcoTryR, half-maximal inhibition (IC50) was put at 0.5 ± 0.1 µM. Moreover, the “SIa (ratio of EC50 against human cells to EC50 against amastigotes)” value in experiment [1] is recorded as 6.2. Also, the EC50 in experiment [1] (setting [2]) worked out at 4.9 ± 0.2 µM.

Take `NCCNCc1nccn1-c1ccc(-c2nc(CCc3ccc4ccccc4c3)cs2)c(OCCN2CCNC2=O)c1` [compound 2, reference compound]: in experiment [1], the “SIa (ratio of EC50 against human cells to EC50 against amastigotes)” value is recorded as 2.1/2.1. Also, in experiment [1] (setting [2]), the EC50 was 12.8 ± 1.3 µM.

On TcoTryR, `NCCCCc1cn(-c2ccc(-c3nc(CCc4ccc(-c5ccccc5)cc4)cs3)c(OCCN3CCNC3=O)c2)nn1.O=C(O)C(F)(F)F` [12c, 1-(2-(2-(4-(2-([1,1′-Biphenyl]-4-yl)ethyl)thiazol-2-yl)-5-(4-(4-ammoniumbutyl)-1H-1,2,3-triazol-1-yl)phenoxy)ethyl)imidazolidin-2-one 2,2,2-Trifluoroacetate] showed an IC50 of 4.8 ± 1.8 µM. In addition, in experiment [1], the “SIa (ratio of EC50 against human cells to EC50 against amastigotes)” value is recorded as 3.7. For the same molecule, in experiment [1] (setting [2]), the EC50 stood at 11.6 ± 0.8 µM.

At TcoTryR, `NCCCCc1cn(-c2ccc(-c3nc(-c4ccccc4)c(-c4ccccc4)s3)c(OCCN3CCNC3=O)c2)nn1.O=C(O)C(F)(F)F` [19a, 1-(2-(5-(4-(4-Ammoniobutyl)-1H-1,2,3-triazol-1-yl)-2-(4,5-diphenylthiazol-2-yl)phenoxy)ethyl)imidazolidin-2-one 2,2,2-Trifluoroacetate] came in with an IC50 of 5.6 ± 0.8 µM. For the same molecule, the “SIa (ratio of EC50 against human cells to EC50 against amastigotes)” value in experiment [1] is given as 1.7. For the same molecule, the EC50 in experiment [1] (setting [2]) was found to be 15.6 ± 3 µM.

With `NCCCCc1cn(-c2ccc(-c3nc(CCc4ccc5ccccc5c4)cs3)c(OCCN3CCNC3=O)c2)nn1.O=C(O)C(F)(F)F` [12b, 1-(2-(5-(4-(4-Ammoniumbutyl)-1H-1,2,3-triazol-1-yl)-2-(4-(2-(naphthalen-2-yl)ethyl)thiazol-2-yl)phenoxy)ethyl)imidazolidin-2-one 2,2,2-Trifluoroacetate], at TcoTryR, the IC50 was 4.8 ± 1.9 µM. The “SIa (ratio of EC50 against human cells to EC50 against amastigotes)” value in experiment [1] is 2.2. For the same molecule, in experiment [1] (setting [2]), the EC50 was determined as 15.3 ± 1.7 µM.

With `NCCCCc1cn(-c2ccc(-c3nc(CCc4ccc5oc6ccccc6c5c4)cs3)c(OCCN3CCNC3=O)c2)nn1.O=C(O)C(F)(F)F` [12s], the “SIa (ratio of EC50 against human cells to EC50 against amastigotes)” value in experiment [1] was “ND/>1.1”. Moreover, in experiment [1] (24 h), the EC50 came to 68.8 ± 3.2 µM.

For `NCCNCc1nccn1-c1ccc(-c2nc(CCc3ccc(-c4ccccc4)cc3)cs2)c(OCCN2CCNC2=O)c1` [compound 3, reference compound], the “SIa (ratio of EC50 against human cells to EC50 against amastigotes)” value in experiment [1] was 2.7 and 2.7/2.7. The EC50 in experiment [1] (setting [2]) was determined as 5.3 ± 0.2 µM.

`NCCCc1cn(-c2ccc(-c3nc(CCc4ccc(-c5ccccc5)cc4)cs3)c(OCCN3CCNC3=O)c2)nn1.O=C(O)C(F)(F)F` [12i]: the “SIa (ratio of EC50 against human cells to EC50 against amastigotes)” value in experiment [1] is recorded as 11.6. Also, in experiment [1] (setting [2]), the EC50 turned out to be 5.2 ± 0.3 µM.

Regarding `NCCCCc1cn(-c2ccc(-c3nc(CCc4ccc5c(c4)CCO5)cs3)c(OCCN3CCNC3=O)c2)nn1.O=C(O)C(F)(F)F` [12r], the midpoint of inhibition against TcoTryR, the IC50, lay at 10.1 ± 1.4 µM. The “SIa (ratio of EC50 against human cells to EC50 against amastigotes)” value in experiment [1] is reported as 1.3. Further, the EC50 in experiment [1] (setting [2]) was determined as 22.3 ± 0.6 µM.

In the case of `NCCCCc1cn(-c2ccc(-c3nc(-c4ccc(Oc5ccccc5)cc4)c(-c4ccccc4)s3)c(OCCN3CCNC3=O)c2)nn1.O=C(O)C(F)(F)F` [19c, 1-(2-(5-(4-(4-Ammoniobutyl)-1H-1,2,3-triazol-1-yl)-2-(4-([4-phenyloxyphenyl]-1-yl)-5-phenylthiazol-2-yl)phenoxy)ethyl)imidazolidin-2-one 2,2,2-Trifluoroacetate], in experiment [1], the “SIa (ratio of EC50 against human cells to EC50 against amastigotes)” value was “ND/≥3.3”. Further, the EC50 in experiment [1] (setting [2]) stood at 22.6 ± 5.7 µM.

Molecule `NCCCCc1cn(-c2ccc(-c3nc(-c4ccccc4)cs3)c(OCCN3CCNC3=O)c2)nn1.O=C(O)C(F)(F)F` [12n] came in with a half-inhibitory concentration (IC50) at TcoTryR of 9.3 ± 0.8 µM. Further, in experiment [1] (setting [2]), the concentration giving a half-maximal response (EC50) was determined as 11.5 ± 0.3 µM.
